Measurements published in publication PMC6631887, “In vitro and in vivo characterization of anti-malarial acylphenoxazine derivatives prepared from basic blue 3” (Malaria Journal, 2019).
Several values for one entry are separate records, joined by “and”; a condition that tells them apart may be missing. Identical values can stand only once. Like-named read-outs stand apart in the source and are kept apart here.

Assays:
[1] = test system: Plasmodium falciparum field isolate MRA-1239 (ART-sensitive); test: In vitro anti-malarial efficacy (growth inhibition), XN-30 analyzer, MRA-1239 isolate; type: cell-based; conditions: read-out: IC50 MRA-1239
[2] = test system: Plasmodium falciparum field isolate MRA-1240 (ART-resistant); test: In vitro anti-malarial efficacy (growth inhibition), XN-30 analyzer, MRA-1240 isolate; type: cell-based; conditions: read-out: IC50 MRA-1240
[3] = test system: Plasmodium falciparum W2 (CQ- and PYR-resistant); test: In vitro anti-malarial efficacy (growth inhibition), XN-30 analyzer, W2 strain; type: cell-based; conditions: read-out: IC50 W2
[4] = test system: Plasmodium falciparum 3D7 (CQ- and PYR-sensitive); test: In vitro anti-malarial efficacy (growth inhibition), XN-30 analyzer, 3D7 strain; type: cell-based; conditions: read-out: IC50 3D7
[5] = Cytotoxic assay (Cell Counting Kit-8), HepG2; type: cell-based; conditions: human, HepG2 cells; 48 h culture, CCK-8; mean ± SEM, three experiments
Experimental: (§1) HepG2 (JCRB1054) and HEK293T cell lines were obtained from the Japanese Collection of Research Bioresources (JCRB, Osaka, Japan) and Prof. Yoshiharu Matsuura (Osaka University, Osaka, Japan), respectively. The cells were cultured in Dulbecco’s modified Eagle’s medium (DMEM (1.0 g/L glucose) with L-glutamine and sodium pyruvate; Nacalai Tesque, Kyoto, Japan) supplemented with 10% (v/v) fetal bovine serum (FBS; Gibco-BRL, Grand Island, NY, USA) in a humidified incubator with 5% CO2 at 37 °C. For the cytotoxic assay, the cells (5 × 10^3/well) were seeded in a 96-well plate. […] Cell viability was measured using a Cell Counting Kit-8 (Dojindo) according to the manufacturer’s instructions. Briefly, 10 µL CCK-8 reagent was added to each well containing culture medium and incubated for 2 h under standard culture conditions. The absorbance of the sample was measured at 450 nm using a PowerWave HT microplate spectrophotometer (BioTek Instruments, Winooski, VT, USA). The cell viability was expressed as a percentage of the absorbance of the untreated control cells after subtracting the appropriate background intensity. The CC50 (mean ± SEM) was calculated as described in IC50. The SI, which is the ratio between the cytotoxicity and anti-malarial activity, was calculated according to the following equation. SI=mean CC50/mean IC50.

Plasmodium berghei NK65 = test: In vivo anti-malarial activity, rodent malaria model, oral administration; set-up: species or system Plasmodium berghei (in ICR mice); conditions: for MSD (mean survival day) / % suppression on day 4: mice; for MSD (mean survival day): observed to day 30; for % suppression on day 4: repeated for 3 consecutive days, parasitaemia vs control
Experimental: The in vivo anti-malarial efficacy of ITT-001 to 006 was evaluated using the rodent malaria parasite P. berghei NK65 as described by Fidock et al., with some modifications. The parasite was maintained by syringe passage every week in female ICR mice (4–8-week-old; body weight, 25–27 g, Sankyo Lab Service, Tokyo, Japan). On day 0, a 200 µL aliquot of saline containing 2 × 10^7 iRBCs prepared from the pre-infected mice was injected intravenously into the mice. After 4 h, basic blue 3 and ITT-001 to 006 dissolved or suspended in 5% (w/v) methyl cellulose 400 solution (FUJIFILM Wako Pure Chemical, Osaka, Japan) were orally administered (100 mg/kg body weight of basic blue 3 and ITT-001 to 006 and 50 mg/kg body weight of ITT-004) to the mice (four and five groups for basic blue 3 and ITT-001 to 006, respectively). The control group (five mice/group) was treated with approximately 100 µL of the vehicle. This treatment was repeated for 3 consecutive days. On day 4, peripheral blood samples were obtained from the tail veins of the mice and thin blood smears stained with Diff-Quik stain kit (Sysmex) were observed under a Leica DM6000B microscope (Leica Microsystems, Wetzlar, Germany). Parasitaemia was determined by counting over 10 fields of view. The suppression rate (%) was calculated as the difference in parasitaemia between the test and control groups. The mean survival day (MSD) was calculated from the number of the surviving mice on day 30. The surviving mice were cured on day 30. Kaplan–Meier curves were generated to graphically display the efficacy using GraphPad Prism version 5.0.

[6] = Cytotoxic assay (Cell Counting Kit-8), HEK293T; type: cell-based; conditions: human, HEK293T cells; 48 h culture, CCK-8; mean ± SEM, three experiments
Experimental: as §1

[7] = Measurement of fluorescence spectrum (self-fluorescence); type: physicochemical; conditions: 10 µM in saline containing 1% DMSO, excitation 592 nm, emission 630-730 nm
Experimental: Fluorescence spectrum of basic blue 3 and ITT-001 to 006 (10 µM) was obtained in saline containing 1% DMSO at room temperature. The compounds were excited at 592 nm (bandpass width, 5 nm) and their emission spectra, 630 nm to 730 nm, were measured with a RF-5300PC Spectro fluorophotometer (Shimadzu).

[8] = test system: Plasmodium falciparum 3D7 (ring-form-synchronized); test: Characterization of anti-malarial activity in vitro, 24 h treatment, XN-30 analyzer and light microscopy; type: cell-based; conditions: 3D7, 24 h treatment; for concentration at which parasites were arrested or killed with the ring-form: XN-30 analyzer (Fig. 2i); for concentration at which trophozoites appeared: XN-30 analyzer (Fig. 2ii)
Experimental: The ring-form-synchronized parasite (3D7 strain) was treated with the indicated concentrations of basic blue 3 and ITT-001 to 006 for 24 h for flow cytometric and morphological analyses using an automated haematology analyzer, XN-30, and light microscope, respectively.
For the flow cytometric analysis, the XN30 analyzer was equipped with a prototype algorithm for cultured P. falciparum [prototype; software version: 01-03, (build 16)] and specific reagents were used ([…] DCL, SULFOLYSER, Lysercell M, and Fluorocell M) (Sysmex, Kobe, Japan). Approximately 100 µL of the culture suspension diluted with 100 µL phosphate-buffered saline was added into a BD Microtainer MAP Microtube for Automated Process K2 EDTA 1.0 mg tube (Becton–Dickinson and Co., Franklin Lakes, NJ, USA) and loaded onto the XN-30 analyzer with an auto-sampler as described in the instrument’s manual (Sysmex). […] Horizontal and vertical axes represent the intensities of side fluorescent light (SFL, which corresponds to DNA content) and forward scattered light (FSC, indicating iRBC size), respectively. Colours indicate the following based on the default setting: red, ring-form; orange, trophozoite; purple, schizont; and blue, polychromatic RBC. Once parasites replicate DNA, dots are plotted to the right side on the M scattergram according to the increase in DNA content. The parasitaemias (total, MI-RBC%; ring-form, RNG-RBC%; trophozoite, TRPZ-RBC%; and schizont, SCHZ-RBC%) were automatically reported.
A standard thin blood smear was fixed with 100% methanol for 10 min and stained with 10% Giemsa working solution, pH 7.2 (Merck KGaA, Darmstadt, Germany) for 13 min.

[9] = 48 h treatment, ring-form-synchronized, XN-30 analyzer, mean ± SEM, three experiments
[10] = Plasmodium falciparum, W2, 48 h, 48 h treatment, ring-form-synchronized, XN-30 analyzer, mean ± SEM, three experiments
[11] = Plasmodium falciparum, 3D7, 48 h, 48 h treatment, ring-form-synchronized, XN-30 analyzer, mean ± SEM, three experiments
[12] = oral 100 mg/kg, surviving mice considered cured

Structure (SMILES)	IC50 [1, 9] [nM]	IC50 [2, 9] [nM]	IC50 [3, 10] [nM]	CC50 at 48 h [5] [nM]	IC50 [4, 11] [nM]	MSD (mean survival day) (Plasmodium berghei NK65; oral 100 mg/kg) [days]	% suppression on day 4 (Plasmodium berghei NK65; oral 100 mg/kg) [%]	# of survived mice on day 30 (Plasmodium berghei NK65; [12])	CC50 at 48 h [6] [nM]	maximum fluorescence intensity [7]	other results
C[C@@H]1CC[C@H]2[C@@H](C)C(=O)O[C@@H]3O[C@@]4(C)CC[C@@H]1[C@]32OO4 [ART, artemisinin, reference compound]	5.5 ± 0.018	13.2 ± 1.4	–	–	–	–	–	–	–	–	–
CCN(CC)CCCC(C)Nc1ccnc2cc(Cl)ccc12 (stereo not shown) [CQ, chloroquine, reference compound]	–	–	–	–	–	–	–	–	–	–	IC50 ([3]; Plasmodium falciparum, W2, 48 h): 225 ± 23.2 nM; IC50 ([1]; 48 h): 38.6 ± 5.2 nM; IC50 ([4]; Plasmodium falciparum, 3D7, 48 h): 8.6 ± 0.21 nM; IC50 ([2]; 48 h): 58 ± 2.6 nM
CCN(CC)c1ccc2c(c1)Oc1cc(N(CC)CC)ccc1N2C(C)=O [ITT-001, 1-(3,7-Bis(diethylamino)-10H-phenoxazin-10-yl)ethanone]	34.6 ± 9.1	39 ± 11.2	11.1 ± 1.8	4000 ± 850	11.2 ± 1.3	20.4	> 99	3/5	320 ± 42	–	–
CCN(CC)c1ccc2c(c1)Oc1cc(N(CC)CC)ccc1N2C(=O)C(C)(C)C [ITT-002, 1-(3,7-Bis(diethylamino)-10H-phenoxazin-10-yl)-2,2-dimethylpropan-1-one]	20.7 ± 1.6	24.4 ± 3.7	10.4 ± 2.8	> 50000	10.7 ± 1.5	19.2	> 99	2/5	200 ± 21	–	–
CCN(CC)c1ccc2c(c1)Oc1cc(N(CC)CC)ccc1N2C(=O)C1CC1 [ITT-003]	24.9 ± 3.1	31.3 ± 9.8	9.6 ± 2.1	> 50000	9.8 ± 1	21.0	> 99	2/5	9200 ± 3800	–	–
CCN(CC)c1ccc2c(c1)Oc1cc(N(CC)CC)ccc1N2C(=O)c1ccccc1 [ITT-004, (3,7-Bis(diethylamino)-10H-phenoxazin-10-yl)(phenyl)methanone]	26.4 ± 2.9	30.5 ± 2	12.3 ± 2.7	> 50000	11.3 ± 2.4	29.4	> 99	–	10500 ± 3400	less than 3 a.u.	MSD (mean survival day) (Plasmodium berghei NK65; oral 50 mg/kg): 11.8 days; % suppression on day 4 (Plasmodium berghei NK65; oral 50 mg/kg): > 99%; # of survived mice on day 30 (Plasmodium berghei NK65; oral 50 mg/kg): 0/5; # of survived mice on day 30 (Plasmodium berghei NK65; oral 100 mg/kg, surviving mice considered cured, 100 mg/kg): four of five and 4 out of 5 and 4/5
CCN(CC)CC(=O)N1c2ccc(N(CC)CC)cc2Oc2cc(N(CC)CC)ccc21.Cl [ITT-005, 1-(3,7-Bis(diethylamino)-10H-phenoxazin-10-yl)-2-(diethylamino)ethanone hydrochloride]	130 ± 9.3	184 ± 30.1	–	4600 ± 260	–	14.0	> 99	1/5	730 ± 93	–	concentration at which parasites were arrested or killed with the ring-form [8]: 5000 nM; concentration at which trophozoites appeared [8]: 150 nM
CCN(CC)c1ccc2c(c1)Oc1cc(N(CC)CC)ccc1N2C(=O)c1ccc(F)cc1 [ITT-006, (3,7-Bis(diethylamino)-10H-phenoxazin-10-yl)(4-fluorophenyl)methanone]	27.5 ± 3.4	29.4 ± 5.8	16 ± 4.5	> 50000	10.6 ± 1.6	13.0	91.5	0/5	13600 ± 3000	less than 3 a.u.	–
CCN(CC)c1ccc2nc3ccc(=[N+](CC)CC)cc-3oc2c1 [basic blue 3]	5.2 ± 1.1	5.9 ± 0.68	~4	1000 ± 64	~4	20.3	> 99	1/4	21 ± 4.2	775 a.u.	IC50 [3, 9]: 4.8 ± 0.53 nM; concentration at which parasites were arrested or killed with the ring-form [8]: 15 nM; concentration at which trophozoites appeared [8]: 0.5 nM; IC50 [4, 9]: 3.2 ± 0.19 nM
